Laboratory results reported in article PMC8113459, “Selective inhibition of cullin 3 neddylation through covalent targeting DCN1 protects mice from acetaminophen-induced liver toxicity” (Nature Communications, 2021).
Several values for one entry are separate records, joined by “and”; a condition that tells them apart may be missing. Equal values may be shown once. Read-outs that look alike come from different tables or passages of the source. Blank lines part the entries; values can stand above or below the compound they belong to.

Columns and labels:
[1] = target: DCN1 (Homo sapiens, UniProt Q96GG9); assay: Competitive FP binding assay
Sequence of DCN1 (Q96GG9 whole entry): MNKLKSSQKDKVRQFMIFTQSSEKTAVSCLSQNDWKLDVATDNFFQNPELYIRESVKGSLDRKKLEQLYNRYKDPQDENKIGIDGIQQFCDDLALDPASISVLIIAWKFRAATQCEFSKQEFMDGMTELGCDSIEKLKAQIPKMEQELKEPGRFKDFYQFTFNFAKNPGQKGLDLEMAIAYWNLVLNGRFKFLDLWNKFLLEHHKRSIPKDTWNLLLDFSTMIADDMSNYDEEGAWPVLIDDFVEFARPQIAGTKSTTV
Procedure: Competitive FP binding assay was performed as previously described. The IC50 and Ki values of DI-1548 and DI-1548DD were determined in competitive binding experiments. Mixtures of preincubated protein/probe complex solution in the assay buffer (196 μL) and compounds in DMSO (4 μL) were added into assay plates which were incubated at room temperature for 30 min with gentle shaking. The concentrations of DCN1 protein and fluorescent probe were 50 and 5 nM, respectively. […] FP values in millipolarization units were measured using the Infinite M-1000 plate reader (Tecan U.S., Research Triangle Park, NC) in Microfluor 1 96-well, black, round-bottom plates (Thermo Fisher Scientific, Waltham, MA) at an excitation wavelength of 485 nm and an emission wavelength of 530 nm. IC50 values were determined by nonlinear regression fitting of the competition curves using the dose–response inhibition equation (four parameters, variable slopes) included in the Prism/GraphPad software. Ki values were calculated using methods described previously.

[2] = Cell viability assay (WST-8), MDA-MB-231; format: cell-based, human; details: human, MDA-MB-231 cells, replicates, read-out: cell viability relative to control
Procedure, shortened: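 Cells (2000–3000 per well) were treated with serial dilutions of DCN1 inhibitors for 3 days, then incubated 1–3 h with WST-8 and absorbance read at 450 nm. Growth inhibition was sample-to-control absorbance ratio, with EC50 from fitted curves.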

[3] = system: HO-1 protein; assay: Western blot, HO-1 protein in THLE2 cells; format: cell-based, human; details: THLE2, Fig. 6b
Procedure: Western blotting was performed as described previously. Treated cells were lysed by RIPA buffer supplemented with protease inhibitor. The expression level of indicated proteins was examined by immunoblotting analysis and GAPDH was used as the loading control. Antibodies were purchased commercially: cullin 1 (sc-17775, 1:500 dilution) and cullin 2 (sc-166506, 1:500 dilution) from Santa Cruz Biotech (Santa Cruz, CA); cullin 4A (PA5-14542, 1:1000 dilution), cullin 4B (PA5-50647, 1:1000 dilution), and DCN3 (DCUN1D3, PA5-44000, 1:1000 dilution) from Thermo Fisher Scientific (Wayne, MI); cullin 3 (2759, 1:1000), NRF2 (12721, 1:1000 dilution), HO-1 (70081, 1:1000 dilution), and Bim (2819, 1:1000 dilution) from Cell Signaling Technology (Boston, MA); DCN1 (GWB-E3D700, 1:1000 dilution) from GenWay Biotech (San Diego, CA); and cullin 5 (A302-173A, 1:500 dilution) from Bethyl Labs (Montgomery, TX). Results are representative of two independent experiments.

[4] = system: APAP-induced liver injury; assay: APAP-induced liver injury: alanine aminotransferase (ALT) level; format: in vivo, mouse; details: for reduction of the elevated ALT level induced by 400 mg/kg of APAP: 24 h time point
Procedure: The in vivo studies were performed under animal protocols (PRO00007499) and (PRO00006638) approved by the Institutional Animal Care & Use Committee of the University of Michigan, in accordance with the recommendations in the Guide for the Care and Use of Laboratory Animals of the National Institutes of Health. C57BL/6 WT mice (~8 weeks, male, normal chow) were purchased from the Jackson Laboratory and randomly divided into eight groups (8–9 mice per group) treated (IP) as follows: phosphate-buffered saline vehicle once per day for 3 days (G1), APAP alone a single dose at 400 mg/kg on day 1 (G2), DI-1859 alone 25 mg/kg once per day for 3 days (G3), DI-1859 alone 50 mg/kg once per day for 3 days (G4), pretreatment (1 day before the APAP administration) with DI-1859 at 25 mg/kg once per day for 3 days followed with APAP at 400 mg/kg on day (G5), pretreatment (1 day before the APAP administration) with DI-1859 at 50 mg/kg once per day for 3 days followed with APAP at 400 mg/kg on day (G6), APAP a single dose at 400 mg/kg (3 h before the first DI-1859 administration) followed with DI-1859 at 25 mg/Kg once per day for 3 days (G7), and APAP a single dose at 400 mg/kg (3 h before the first DI-1859 administration) followed with DI-1859 at 50 mg/Kg once per day for 3 days (G8).
To induce acute liver injury, animals received PBS or APAP (400 mg/kg, sigma, A7085) through I.P. injection at 12 p.m. and were sacrificed 48 h afterward. To examine the protective effect of DI-1859 (groups 5 and 6), animals were I.P. injected with compound for 3 consecutive days (9 a.m. on each day, starting 1 day before APAP administration). To examine the restorative effect of DI-1859 (groups 7 and 8), animals were I.P. injected with compound 3 h after APAP administration followed by two additional treatments (9 a.m. on the next 2 days). Body weight and blood glucose level measurement, along with blood sample collection, were performed at 12 p.m. on each day.
Blood glucose levels were determined using glucometers (Bayer Corp., Pittsburgh, PA). Plasma ALT activity was measured using an ALT reagent set (Pointe Scientific Inc., Canton, MI).

FP signal of the competitive binding curve ([1]; Concentration (nM) 0.016935, duplicates): 44.2 and 44.7
FP signal of the competitive binding curve ([1]; Concentration (nM) 0.050805, duplicates): 43.5 and 45.8
FP signal of the competitive binding curve ([1]; Concentration (nM) 0.152416, duplicates): 44.1 and 44.8
FP signal of the competitive binding curve ([1]; Concentration (nM) 0.457247, duplicates): 43.8 and 44
FP signal of the competitive binding curve ([1]; Concentration (nM) 1.37174, duplicates): 41.3
FP signal of the competitive binding curve ([1]; Concentration (nM) 4.11523, duplicates): 32.5 and 31.9
FP signal of the competitive binding curve ([1]; Concentration (nM) 12.3457, duplicates): 17.8 and 17.9
FP signal of the competitive binding curve ([1]; Concentration (nM) 37.037, duplicates): 15.7 and 15.4
FP signal of the competitive binding curve ([1]; Concentration (nM) 111.111, duplicates): 14.3 and 14.5
FP signal of the competitive binding curve ([1]; Concentration (nM) 333.333, duplicates): 15.3 and 15.7
FP signal of the competitive binding curve ([1]; Concentration (nM) 1000, duplicates): 16.2 and 15.8
IC50 ([1]; DCN1 50 nM, probe 5 nM, 30 min): 4.6 nM
Ki ([1]; DCN1 50 nM, probe 5 nM, 30 min): < 1 nM
Compound: C=C(CN1CCOCC1)C(=O)NC[C@@H](NC(=O)[C@H](Cc1nc2ccc(C(C)C)cc2s1)NC(=O)CC)C1CCCCC1 [DI-1548]
viability at 72 h ([2]; conc 30, 72 h): 105%
viability at 72 h ([2]; conc 100, 72 h): 97.2%

Compound: C=C(CN(C)C)C(=O)NC[C@@H](NC(=O)[C@H](Cc1nc2ccc(C(C)C)cc2s1)NC(=O)CC)C1CCCCC1 [DI-1859]
HO-1 protein level [3]: dose dependently upregulates
ALT(IU/L) mean ([4]; G3 PBS + Low, Time 0 hr): 26.4101 IU/L
ALT(IU/L) mean ([4]; G3 PBS + Low, Time 24 hr): 28.0781 IU/L
ALT(IU/L) mean ([4]; G4 PBS + High, Time 0 hr): 28.6341 IU/L
ALT(IU/L) mean ([4]; G4 PBS + High, Time 24 hr): 23.9081 IU/L
ALT(IU/L) mean ([4]; G5 APAP + Low-pre, Time 0 hr): 32.3717 IU/L
ALT(IU/L) mean ([4]; G5 APAP + Low-pre, Time 24 hr): 2856 IU/L
ALT(IU/L) mean ([4]; G5 APAP + Low-pre, Time 48 hr): 171.99 IU/L
ALT(IU/L) mean ([4]; G6 APAP + H-pre, Time 0 hr): 30.6419 IU/L
ALT(IU/L) mean ([4]; G6 APAP + H-pre, Time 24 hr): 292.828 IU/L
ALT(IU/L) mean ([4]; G6 APAP + H-pre, Time 48 hr): 49.2459 IU/L
ALT(IU/L) mean ([4]; G7 APAP + Low-post, Time 0 hr): 30.889 IU/L
ALT(IU/L) mean ([4]; G7 APAP + Low-post, Time 24 hr): 1341.82 IU/L
ALT(IU/L) mean ([4]; G7 APAP + Low-post, Time 48 hr): 134.182 IU/L
ALT(IU/L) mean ([4]; G8 APAP + High-post, Time 0 hr): 29.1592 IU/L
ALT(IU/L) mean ([4]; G8 APAP + High-post, Time 24 hr): 1771.79 IU/L
ALT(IU/L) mean ([4]; G8 APAP + High-post, Time 48 hr): 227.59 IU/L
reduction of the elevated ALT level induced by 400 mg/kg of APAP ([4]; prevention setting (G5), 25 mg/kg): 20%
reduction of the elevated ALT level induced by 400 mg/kg of APAP ([4]; prevention setting (G6), 50 mg/kg): 90% and > 90%
reduction of the APAP-induced ALT elevations ([4]; treatment setting (G7), 25 mg/kg after APAP): ~ 50% and 50%
reduction of the APAP-induced ALT elevations ([4]; treatment setting (G8), 50 mg/kg after APAP): ~ 50% and 50%
